Test results taken from ChEMBL document CHEMBL1201862, “PubChem BioAssay data set” (2004).
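Results reflect a 48-hour exposure of cells in 96-well plates to compound at five concentrations. GI50 is the concentration that inhibits growth by half.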 Activity calls are given as the source filed them. No stated cut-off is given here; in the data, active = GI50 up to about 1.1 µM and inactive = higher.

Key:
Experiment in all cases: DTP human tumour cell line panel, 48 h
K562 = tested on: K562
KM12 = tested on: KM12
UACC-62 = tested on: UACC-62
NCI/ADR-RES = tested on: NCI/ADR-RES
MDA-N = tested on: MDA-N
SK-MEL-5 = tested on: SK-MEL-5
MDA-MB-231 = tested on: MDA-MB-231
SK-OV-3 = tested on: SK-OV-3
NCI-H226 = tested on: NCI-H226
SF-539 = tested on: SF-539
HL-60 = tested on: HL-60
OVCAR-4 = tested on: OVCAR-4
U-251 = tested on: U-251
MCF7 = tested on: MCF7
786-0 = tested on: 786-0
MDA-MB-435 = tested on: MDA-MB-435
M14 = tested on: M14
Malme-3M = tested on: Malme-3M
SK-MEL-2 = tested on: SK-MEL-2
HOP-62 = tested on: HOP-62
HCT-116 = tested on: HCT-116
SR = tested on: SR
HCT-15 = tested on: HCT-15
T47D = tested on: T47D
ACHN = tested on: ACHN
HOP-92 = tested on: HOP-92
OVCAR-8 = tested on: OVCAR-8
A498 = tested on: A498
RPMI-8226 = tested on: RPMI-8226
OVCAR-5 = tested on: OVCAR-5
DU-145 = tested on: DU-145
NCI-H460 = tested on: NCI-H460
COLO 205 = tested on: COLO 205
OVCAR-3 = tested on: OVCAR-3
HT-29 = tested on: HT-29
BT-549 = tested on: BT-549
SK-MEL-28 = tested on: SK-MEL-28
HCC 2998 = tested on: HCC 2998
SF-268 = tested on: SF-268
UO-31 = tested on: UO-31
CCRF-CEM = tested on: CCRF-CEM
RXF 393 = tested on: RXF 393
PC-3 = tested on: PC-3
IGROV-1 = tested on: IGROV-1
TK-10 = tested on: TK-10
CAKI-1 = tested on: CAKI-1
SN12C = tested on: SN12C
EKVX = tested on: EKVX
A549 = tested on: A549
SF-295 = tested on: SF-295
MOLT-4 = tested on: MOLT-4
SW-620 = tested on: SW-620
NCI-H23 = tested on: NCI-H23
SNB-19 = tested on: SNB-19
SNB-75 = tested on: SNB-75
LOX IMVI = tested on: LOX IMVI
UACC-257 = tested on: UACC-257
Hs-578T = tested on: Hs-578T

## Cn1c(=O)c2[nH]c(-n3nc(-c4ccccc4)cc3N)nc2n(C)c1=O
K562
  GI50: 6.46 µM (inactive)
KM12
  GI50: 6.58 µM (inactive)
UACC-62
  GI50: 6.37 µM (inactive)
NCI/ADR-RES
  GI50: 2.4 µM (inactive)
MDA-N
  GI50: 11.7 µM (inactive)
SK-MEL-5
  GI50: 5.38 µM (inactive)
MDA-MB-231
  GI50: 10.6 µM (inactive)
SK-OV-3
  GI50: 4.04 µM (inactive)
NCI-H226
  GI50: 5.55 µM (inactive)
SF-539
  GI50: 5.08 µM (inactive)
HL-60
  GI50: 12 µM (inactive)
OVCAR-4
  GI50: 2.91 µM (inactive)
U-251
  GI50: 6.78 µM (inactive)
MCF7
  GI50: 13.8 µM (inactive)
786-0
  GI50: 6.18 µM (inactive)
MDA-MB-435
  GI50: 18 µM (inactive)
M14
  GI50: 10.5 µM (inactive)
Malme-3M
  GI50: 13.7 µM (inactive)
SK-MEL-2
  GI50: 14.6 µM (inactive)
HOP-62
  GI50: 12.5 µM (inactive)
HCT-116
  GI50: 6.49 µM (inactive)
SR
  GI50: 4.31 µM (inactive)
HCT-15
  GI50: 0.8 µM
T47D
  GI50: 11.3 µM (inactive)
ACHN
  GI50: 3.66 µM (inactive)
HOP-92
  GI50: 6.46 µM (inactive)
OVCAR-8
  GI50: 4.85 µM (inactive)
A498
  GI50: 11.1 µM (inactive)
RPMI-8226
  GI50: 12.6 µM (inactive)
OVCAR-5
  GI50: 21.3 µM (inactive)
DU-145
  GI50: 7.93 µM (inactive)
NCI-H460
  GI50: 3.3 µM (inactive)
COLO 205
  GI50: 7.05 µM (inactive)
OVCAR-3
  GI50: 5.35 µM (inactive)
HT-29
  GI50: 4.15 µM (inactive)
BT-549
  GI50: 14.5 µM (inactive)
SK-MEL-28
  GI50: 11 µM (inactive)
HCC 2998
  GI50: 8.67 µM (inactive)
SF-268
  GI50: 11.3 µM (inactive)
UO-31
  GI50: 6.89 µM (inactive)
CCRF-CEM
  GI50: 2.64 µM (inactive)
RXF 393
  GI50: 26.8 µM (inactive)
PC-3
  GI50: 19.7 µM (inactive)
IGROV-1
  GI50: 1.34 µM (inactive)
TK-10
  GI50: 12.4 µM (inactive)
CAKI-1
  GI50: 2.12 µM (inactive)
SN12C
  GI50: 4.6 µM (inactive)
EKVX
  GI50: 5.42 µM (inactive)
A549
  GI50: 5.78 µM (inactive)
SF-295
  GI50: 4.92 µM (inactive)
MOLT-4
  GI50: 7.14 µM (inactive)

## COc1c(Cl)nc2ccccc2c1N=[N+]=[N-]
K562
  GI50: 83.9 µM (inactive)
KM12
  GI50: > 100 µM (inactive)
UACC-62
  GI50: 54.2 µM (inactive)
MDA-N
  GI50: > 100 µM (inactive)
SK-MEL-5
  GI50: 40.5 µM (inactive)
MDA-MB-231
  GI50: 77.1 µM (inactive)
SW-620
  GI50: > 100 µM (inactive)
SK-OV-3
  GI50: > 100 µM (inactive)
SF-539
  GI50: 71.9 µM (inactive)
HL-60
  GI50: 53.3 µM (inactive)
NCI-H23
  GI50: 92.7 µM (inactive)
OVCAR-4
  GI50: > 100 µM (inactive)
U-251
  GI50: > 100 µM (inactive)
MCF7
  GI50: > 100 µM (inactive)
786-0
  GI50: > 100 µM (inactive)
MDA-MB-435
  GI50: > 100 µM (inactive)
M14
  GI50: > 100 µM (inactive)
SNB-19
  GI50: > 100 µM (inactive)
SNB-75
  GI50: 63 µM (inactive)
Malme-3M
  GI50: > 100 µM (inactive)
HOP-62
  GI50: 39.7 µM (inactive)
HCT-116
  GI50: 52.7 µM (inactive)
SR
  GI50: 80 µM (inactive)
LOX IMVI
  GI50: 48.6 µM (inactive)
T47D
  GI50: 85.7 µM (inactive)
ACHN
  GI50: 43.4 µM (inactive)
HOP-92
  GI50: 22.2 µM (inactive)
UACC-257
  GI50: > 100 µM (inactive)
A498
  GI50: 12.4 µM (inactive)
RPMI-8226
  GI50: 95.7 µM (inactive)
OVCAR-5
  GI50: > 100 µM (inactive)
DU-145
  GI50: > 100 µM (inactive)
NCI-H460
  GI50: > 100 µM (inactive)
COLO 205
  GI50: > 100 µM (inactive)
Hs-578T
  GI50: 28.3 µM (inactive)
OVCAR-3
  GI50: > 100 µM (inactive)
HT-29
  GI50: > 100 µM (inactive)
BT-549
  GI50: 19.8 µM (inactive)
SK-MEL-28
  GI50: > 100 µM (inactive)
HCC 2998
  GI50: > 100 µM (inactive)
SF-268
  GI50: 28.7 µM (inactive)
UO-31
  GI50: 17.3 µM (inactive)
CCRF-CEM
  GI50: 88.9 µM (inactive)
RXF 393
  GI50: 30.1 µM (inactive)
PC-3
  GI50: 46 µM (inactive)
IGROV-1
  GI50: 49.5 µM (inactive)
TK-10
  GI50: 70 µM (inactive)
CAKI-1
  GI50: 49.4 µM (inactive)
SN12C
  GI50: 92 µM (inactive)
A549
  GI50: > 100 µM (inactive)
SF-295
  GI50: > 100 µM (inactive)
MOLT-4
  GI50: 19.2 µM (inactive)

## COc1ccc(/C=N/NC(=O)c2ccccc2Nc2ccccc2C(=O)N/N=C/c2ccc(OC)cc2)cc1
K562
  GI50: > 100 µM (inactive)
KM12
  GI50: > 100 µM (inactive)
UACC-62
  GI50: > 100 µM (inactive)
NCI/ADR-RES
  GI50: > 100 µM (inactive)
MDA-N
  GI50: > 100 µM (inactive)
SK-MEL-5
  GI50: > 100 µM (inactive)
MDA-MB-231
  GI50: 65.6 µM (inactive)
SW-620
  GI50: > 100 µM (inactive)
SK-OV-3
  GI50: > 100 µM (inactive)
NCI-H226
  GI50: > 100 µM (inactive)
NCI-H23
  GI50: > 100 µM (inactive)
OVCAR-4
  GI50: > 100 µM (inactive)
U-251
  GI50: > 100 µM (inactive)
MCF7
  GI50: > 100 µM (inactive)
786-0
  GI50: > 100 µM (inactive)
MDA-MB-435
  GI50: > 100 µM (inactive)
M14
  GI50: > 100 µM (inactive)
SNB-19
  GI50: > 100 µM (inactive)
SNB-75
  GI50: > 100 µM (inactive)
Malme-3M
  GI50: > 100 µM (inactive)
SK-MEL-2
  GI50: > 100 µM (inactive)
HOP-62
  GI50: > 100 µM (inactive)
HCT-116
  GI50: > 100 µM (inactive)
SR
  GI50: > 100 µM (inactive)
LOX IMVI
  GI50: > 100 µM (inactive)
HCT-15
  GI50: > 100 µM
T47D
  GI50: > 100 µM (inactive)
ACHN
  GI50: > 100 µM (inactive)
HOP-92
  GI50: > 100 µM (inactive)
OVCAR-8
  GI50: > 100 µM (inactive)
UACC-257
  GI50: > 100 µM (inactive)
A498
  GI50: > 100 µM (inactive)
RPMI-8226
  GI50: > 100 µM (inactive)
OVCAR-5
  GI50: > 100 µM (inactive)
DU-145
  GI50: > 100 µM (inactive)
NCI-H460
  GI50: > 100 µM (inactive)
COLO 205
  GI50: > 100 µM (inactive)
OVCAR-3
  GI50: > 100 µM (inactive)
HT-29
  GI50: > 100 µM (inactive)
BT-549
  GI50: > 100 µM (inactive)
SK-MEL-28
  GI50: > 100 µM (inactive)
HCC 2998
  GI50: > 100 µM (inactive)
SF-268
  GI50: > 100 µM (inactive)
UO-31
  GI50: > 100 µM (inactive)
CCRF-CEM
  GI50: > 100 µM (inactive)
RXF 393
  GI50: > 100 µM (inactive)
PC-3
  GI50: > 100 µM (inactive)
IGROV-1
  GI50: > 100 µM (inactive)
TK-10
  GI50: > 100 µM (inactive)
CAKI-1
  GI50: > 100 µM (inactive)
SN12C
  GI50: > 100 µM (inactive)
EKVX
  GI50: > 100 µM (inactive)
A549
  GI50: > 100 µM (inactive)
SF-295
  GI50: > 100 µM (inactive)
MOLT-4
  GI50: > 100 µM (inactive)
